According to patent publication US20090054411A1, “4-ANILINOQUINOLINE-3-CARBOXAMIDES AS CSF-1R KINASE INHIBITORS” (AstraZeneca AB, priority 2006, published 2009):

Biological target: T1, CSF-1R (Homo sapiens, UniProt P07333)
T1 construct: His-tagged kinase domain of CSF-1R (i.e., amino acids 568-912, GeneBank ID NM_005211); His; made in house; host or cells: baculovirus-infected SF+Express insect cells
T1 sequence (P07333 568-912): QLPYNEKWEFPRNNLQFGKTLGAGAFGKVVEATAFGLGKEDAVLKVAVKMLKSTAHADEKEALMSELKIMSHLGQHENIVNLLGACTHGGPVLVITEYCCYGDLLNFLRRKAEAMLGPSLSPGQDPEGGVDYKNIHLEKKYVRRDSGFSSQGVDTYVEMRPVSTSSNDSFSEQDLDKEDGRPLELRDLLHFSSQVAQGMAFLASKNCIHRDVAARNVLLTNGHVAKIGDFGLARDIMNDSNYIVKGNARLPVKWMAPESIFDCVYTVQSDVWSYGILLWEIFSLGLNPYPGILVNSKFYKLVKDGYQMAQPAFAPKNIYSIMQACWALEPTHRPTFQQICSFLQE
Assay: CSF-1R In Vitro AlphaScreen Assay
Format: biochemical
Conditions: purified His-tagged kinase domain of CSF-1R, pEY substrate, 90 μM ATP
Procedure: Activity of purified CSF-1R was determined in vitro using an Amplified Luminescent Proximity Homogeneous Assay (ALPHA)(Perkin Elmer), which measures phosphorylation of the CSF-1R substrate, biotinylated poly-glutamine-tyrosine peptide (pEY-HTRF CisBio 61GT0BLD), as described below.
The phosphorylation of the CSF-1R substrate in the presence and absence of the compound of interest was determined. […] Plates were incubated at 25° C. for 18 hours in the dark. Phosphorylated substrate was detected by an EnVision plate reader (Perkin Elmer) 680 nm excitation, 520-620 nm emission. Data was graphed and IC50s calculated using Excel Fit (Microsoft).

Row | Compound | IC50 [nM]
1 | NC(=O)c1cnc2cc(F)c(N3CCOCC3)cc2c1Nc1ccc(F)cc1F [Example 18] | 154
2 | COc1cc2c(Nc3cccc(Cl)c3Cl)c(C(N)=O)cnc2cc1N1CCN(C)CC1 [Example 9] | 23
